Here are results for one compound from patent publication US12636291B2, “Compositions and methods relating to use of agonists of ALPHA5-containing GABAA receptors” (Centre for Addiction and Mental Health, priority 2019, dated 2026).

The subject of this assay is old mice. Description: Spontaneous alternation in the Y-Maze (working memory), normal aging. The conditions noted are these: GL-II-73 in drinking water 8 weeks (30 mg/kg) vs old mice vehicle (52.6%; young 79.6%), p=0.01. Type of assay: in vivo, mouse. The text has this:
The percentage of alternation during the Y maze test can be considered as an index of working memory performance (50% of alternation corresponding to a random alternation rate). […] ANOVA analysis indicates a significant difference between all groups (F(2;25)=11.34; p=0.0003).
Animals: For the experiments described above, young (n=11, age 2 months) and old male mice (N=23) were purchased from Charles River. Old mice were obtained at the age of 9-10 months and were kept in the animal facility until they reached the age of 22 months. Young mice (2 months old) were purchased when old mice had already reached the age of 22 months. All animals were single housed. Experiments were performed on mice aged 2 months (“young”) or 22 months (“old”) at the beginning of the experimental protocol. The second set of experiments with the Washout group included 8 young mice and 22 old mice. Old mice were split into 3 groups of 7-8 between “Old”, “Old-treated” and “Old-Washout”. Finally, the pilot with the 5×FAD mice was performed with 15 heterozygote 5×FAD mice, bred in the animal facility of the Centre for Addiction and Mental Health, Toronto (ON, Canada). […]
Spontaneous alternation in the Y-Maze: Mice were tested in a Y maze test as an assessment of working memory. […] The alternation rate was calculated and was expressed as a percentage: […]

With `C#Cc1ccc2c(c1)C(c1ccccc1F)=N[C@H](C)c1c(C(=O)N(C)C)ncn1-2` (stereo in doubt) [GL-II-73, 8-ethynyl-6-(2-fluorophenyl)-N,N,4-trimethyl-4H-benzo[f]imidazo[1,5-a][1,4]diazepine-3-carboxamide], the “alternation rate in the Y maze test” value is “higher alternation rate than old mice receiving only vehicle”.
